Experimental data reported in patent US5661165A, “((4-phenyl-1,2,5-thiadiazol-3-yl)oxy)methyl ester thiocyanic acid compounds, compositions containing them and their use as antimicrobial and marine antifouling agents” (The Dow Chemical Company, priority 1996, dated 1997).
In brackets after ≈: the same amount, converted by molar mass. Read-outs that look alike come from different tables or passages of the source.

Tests used:
[1] = system: Klebsiella pneumoniae (Kp); assay: MIC against bacteria (nutrient agar); type: cell-based, Klebsiella pneumoniae ATCC 8308; conditions: 30° C., 48 h, read-out: Minimum Inhibitory Concentration, Kp
Trichoderma viride (Tv) = assay: MIC against yeast/fungi (malt yeast agar); type: cell-based, Trichoderma viride ATCC 8678; conditions: 30° C., fungi read after 72 h, read-out: Minimum Inhibitory Concentration, Tv
Protocol: (§1) The antimicrobial activity of the compounds of the present invention is set forth as the minimum inhibitory concentration (MIC) for the active compounds and is determined for nine (9) bacteria, using nutrient agar, and seven (7) yeast and fungi, using malt yeast agar. This determination is conducted using a one percent solution of the test compound prepared in a mixture of acetone and water.
(§2) Malt yeast agar is prepared by adding 3 g yeast extract and 45 g malt agar per liter of deionized water. The specific agar is dispensed in 30 mL aliquots into 25×200 mm test tubes, capped and autoclaved for 15 minutes at 115° C.
(§3) The test tubes containing the agar are cooled in a water bath until the temperature of the agar is 48° C. Then, an appropriate amount of the one percent solution of the test compound is added (except in the controls where no compound is added) to the respective test tubes so that the final concentrations are 500, 250, 100, 50, 25, 10, 5, 2.5, 1.0 and zero parts per million of the test compound in the agar, thus having a known concentration of test compound dispersed therein. The contents of the test tubes are then transferred to respective petri plates. After drying for 24 hours, the petri plates containing nutrient agar are inoculated with bacteria and those containing malt yeast agar are inoculated with yeast and fungi.
(§4) The inoculation with the yeast and fungi is accomplished as follows. Cultures of yeast and fungi are incubated for seven days on malt yeast agar at 30° C. These cultures are used to prepare suspensions by the following procedure. A suspension of each organism is prepared by adding 10 mL of sterile saline and 10 microliters of octylphenoxy polyethoxy ethanol to the agar slant of yeast or fungi. The sterile saline/octylphenoxy polyethoxy ethanol solution is then agitated with a sterile swab to suspend the microorganism grown on the slant. Each resulting suspension is diluted into sterile saline (1 part suspension to 9 parts sterile saline). Aliquots of these dilutions are placed in individual wells of Steer's Replicator and petri plates inoculated as previously described. The petri plates are incubated at 30° C. and read after 48 hours for yeast and 72 hours for fungi.
(§5) Table I lists the bacteria, yeast and fungi used in the MIC test described above along with their respective American Type Culture Collection (ATCC) identification numbers.

Escherichia coli (Ec) = assay: MIC against bacteria (nutrient agar); type: cell-based, Escherichia coli ATCC 11229; conditions: 30° C., 48 h, read-out: Minimum Inhibitory Concentration, Ec
[2] = system: Saccharomyces cerevisiae (Sc); assay: MIC against yeast/fungi (malt yeast agar); type: cell-based, Saccharomyces cerevisiae ATCC 4105; conditions: 30° C., yeast read after 48 h, read-out: Minimum Inhibitory Concentration, Sc
Protocol: as §1, §2, §3, §4, §5

[3] = system: Staphylococcus aureus (Sa); assay: MIC against bacteria (nutrient agar); type: cell-based, Staphylococcus aureus ATCC 6538; conditions: 30° C., 48 h, read-out: Minimum Inhibitory Concentration, Sa
[4] = system: Pencillium chrysogenum (Pc); assay: MIC against yeast/fungi (malt yeast agar); type: cell-based, Pencillium chrysogenum ATCC 9480; conditions: 30° C., fungi read after 72 h, read-out: Minimum Inhibitory Concentration, Pc
Protocol: as §1, §2, §3, §4, §5

Proteus vulgaris (PV) = assay: MIC against bacteria (nutrient agar); type: cell-based, Proteus vulgaris ATCC 881; conditions: 30° C., 48 h, read-out: Minimum Inhibitory Concentration, Pv
[5] = system: Psuedomonas aeruginosa (Pa); assay: MIC against bacteria (nutrient agar); type: cell-based, Psuedomonas aeruginosa ATCC 10145; conditions: 30° C., 48 h, read-out: Minimum Inhibitory Concentration, Pa
Protocol: as §1
Nutrient agar is prepared at pH 6.8, representing a neutral medium, and at pH 8.2, representing an alkaline medium. The nutrient agars are prepared by adding 23 g of nutrient agar to one-liter of deionized water. In addition, the alkaline medium is prepared by adjusting a 0.04M solution of N-[tris-(hydroxymethyl)methyl]-glycine buffered deionized water with concentrated sodium hydroxide to a pH of 8.5.
as §3
The inoculation with bacteria is accomplished by using the following procedure. Twenty-four hour-cultures of each of the bacteria are prepared by incubating the respective bacteria in tubes containing nutrient broth for 24 hours at 30° C. in a shaker. Dilutions of each of the 24 hour-cultures are made so that nine separate suspensions (one for each of the nine test bacteria) are made, each containing 10^8 colony forming units (CFU) per mL of suspension of a particular bacteria. Aliquots of 0.3 mL of each of the bacterial suspensions are used to fill the individual wells of Steer's Replicator. For each microbial suspension, 0.3 mL was used to fill three wells (i.e., three wells of 0.3 mL each) so that for the nine different bacteria, 27 wells are filled. The Steer's Replicator is then used to inoculate both the neutral and alkaline pH nutrient agar petri plates.
The inoculated petri plates are incubated at 30° C. for 48 hours and then read to determine if the test compound which is incorporated into the agar prevented growth of the respective bacteria.
as §5

[6] = system: Aureobasidium pullulan (Ap); assay: MIC against yeast/fungi (malt yeast agar); type: cell-based, Aureobasidium pullulan ATCC 16622; conditions: 30° C., yeast 48 h / fungi 72 h, read-out: Minimum Inhibitory Concentration, Ap
Protocol: as §1, §2, §3, §4, §5

[7] = system: Salmonella choleraesuis (Sc); assay: MIC against bacteria (nutrient agar); type: cell-based, Salmonella choleraesuis ATCC 10708; conditions: Salmonella enterica, 30° C., 48 h, read-out: Minimum Inhibitory Concentration, Sc
Bacillus subtilis (Bs) = assay: MIC against bacteria (nutrient agar); type: cell-based, Bacillus subtilis ATCC 8473; conditions: 30° C., 48 h, read-out: Minimum Inhibitory Concentration, Bs
Fusarium oxysporum (Fo) = assay: MIC against yeast/fungi (malt yeast agar); type: cell-based, Fusarium oxysporum ATCC 48112; conditions: 30° C., fungi read after 72 h, read-out: Minimum Inhibitory Concentration, Fo
Protocol: as §1, §2, §3, §4, §5

Candida albicans (Ca) = assay: MIC against yeast/fungi (malt yeast agar); type: cell-based, Candida albicans ATCC 10231; conditions: 30° C., yeast read after 48 h, read-out: Minimum Inhibitory Concentration, Ca
Protocol: as §1, §2, §3, §4, §5

Aperigillus niger (An) = assay: MIC against yeast/fungi (malt yeast agar); type: cell-based, Aperigillus niger ATCC 16404; conditions: 30° C., fungi read after 72 h, read-out: Minimum Inhibitory Concentration, An
Protocol: as §1, §2, §3, §4, §5

[8] = system: Enterobacter aerogenes (Ea); assay: MIC against bacteria (nutrient agar); type: cell-based, Enterobacter aerogenes ATCC 13048; conditions: Klebsiella aerogenes, 30° C., 48 h, read-out: Minimum Inhibitory Concentration, Ea
[9] = system: Psuedomonas aeruginosa (PRD-10); assay: MIC against bacteria (nutrient agar); type: cell-based, Psuedomonas aeruginosa ATCC 15442; conditions: 30° C., 48 h, read-out: Minimum Inhibitory Concentration, PRD

Structure (SMILES)	MIC ([1]; pH 6.8, nutrient agar) [µg/mL]	MIC ([1]; pH 8.2, nutrient agar) [µg/mL]	MIC (Trichoderma viride (Tv)) [µg/mL]	MIC (Escherichia coli (Ec); pH 6.8, nutrient agar) [µg/mL]	MIC (Escherichia coli (Ec); pH 8.2, nutrient agar) [µg/mL]	MIC [2] [µg/mL]	MIC ([3]; pH 6.8, nutrient agar) [µg/mL]	MIC ([3]; pH 8.2, nutrient agar) [µg/mL]	MIC [4] [µg/mL]	MIC (Proteus vulgaris (PV); pH 6.8, nutrient agar) [µg/mL]	MIC (Proteus vulgaris (PV); pH 8.2, nutrient agar) [µg/mL]	MIC ([5]; pH 6.8, nutrient agar) [µg/mL]	MIC ([5]; pH 8.2, nutrient agar) [µg/mL]	MIC [6] [µg/mL]	MIC ([7]; pH 6.8, nutrient agar) [µg/mL]	MIC ([7]; pH 8.2, nutrient agar) [µg/mL]	MIC (Bacillus subtilis (Bs); pH 6.8, nutrient agar) [µg/mL]	MIC (Bacillus subtilis (Bs); pH 8.2, nutrient agar) [µg/mL]	MIC (Fusarium oxysporum (Fo)) [µg/mL]	MIC (Candida albicans (Ca)) [µg/mL]	also measured
N#CSCOc1nsnc1-c1cccc(Cl)c1 [II, ((4-(3-Chlorophenyl)-1,2,5-thiadiazol-3-yl)oxy)methyl ester thiocyanic acid]	500 (≈ 1760 µM)	500 (≈ 1760 µM)	500 (≈ 1760 µM)	500 (≈ 1760 µM)	> 500	< 1	< 10	< 10	< 1	> 500	500 (≈ 1760 µM)	> 500	> 500	2.5 (≈ 8.81 µM)	500 (≈ 1760 µM)	> 500	< 10	< 10	10 (≈ 35.2 µM)	5 (≈ 17.6 µM)	MIC (Aperigillus niger (An)): 2.5 µg/mL (≈ 8.81 µM); MIC ([8]; pH 6.8, nutrient agar): > 500 µg/mL; MIC ([8]; pH 8.2, nutrient agar): 500 µg/mL (≈ 1760 µM); MIC ([9]; pH 6.8, nutrient agar): > 500 µg/mL; MIC ([9]; pH 8.2, nutrient agar): > 500 µg/mL
N#CSCOc1nsnc1-c1cccc(F)c1 [III, ((4(3Fluorophenyl)-1,2,5-thiadiazol-3-yl)oxy)methyl ester thiocyanic acid]	500 (≈ 1870 µM)	500 (≈ 1870 µM)	500 (≈ 1870 µM)	500 (≈ 1870 µM)	> 500	< 1	< 10	25 (≈ 93.5 µM)	< 1	> 500	500 (≈ 1870 µM)	> 500	> 500	< 1	500 (≈ 1870 µM)	> 500	< 10	< 10	100 (≈ 374 µM)	5 (≈ 18.7 µM)	MIC (Aperigillus niger (An)): < 1 µg/mL; MIC ([8]; pH 6.8, nutrient agar): > 500 µg/mL; MIC ([8]; pH 8.2, nutrient agar): 500 µg/mL (≈ 1870 µM); MIC ([9]; pH 6.8, nutrient agar): > 500 µg/mL; MIC ([9]; pH 8.2, nutrient agar): > 500 µg/mL
N#CSCOc1nsnc1-c1ccc(F)cc1 [IV, ((4(4-Fluorophenyl)-1,2,5-thiadiazol-3-yl)oxy)methyl ester thiocyanic acid]	500 (≈ 1870 µM)	500 (≈ 1870 µM)	500 (≈ 1870 µM)	500 (≈ 1870 µM)	> 500	2.5 (≈ 9.35 µM)	< 10	25 (≈ 93.5 µM)	< 1	> 500	500 (≈ 1870 µM)	> 500	> 500	2.5 (≈ 9.35 µM)	500 (≈ 1870 µM)	> 500	< 10	< 10	5 (≈ 18.7 µM)	5 (≈ 18.7 µM)	MIC (Aperigillus niger (An)): 2.5 µg/mL (≈ 9.35 µM); MIC ([8]; pH 6.8, nutrient agar): > 500 µg/mL; MIC ([8]; pH 8.2, nutrient agar): 500 µg/mL (≈ 1870 µM); MIC ([9]; pH 6.8, nutrient agar): > 500 µg/mL; MIC ([9]; pH 8.2, nutrient agar): > 500 µg/mL
